Data reported in US11318152B2, “Pharmaceutical agent for improving autism spectrum disorder and mental disease” (MATSUTANI CHEMICAL INDUSTRY CO., LTD., priority 2018, dated 2022).

How the values were obtained:
C57BL/6J male mice [1] = assay: Open field test; format: in vivo; conditions: 5 minutes exploration
Source text: The open field test is a test that evaluates spontaneous activity, anxiety-like behavior, and the like in a novel environment by measuring the distance traveled, the number of rearings, the stereotyped behavior, the time spent in the center section, and the like under the novel environment. A mouse is placed in an open field, which is a novel and bright environment for a mouse, and is allowed to freely explore the open field for a certain period of time. The open field has a circular or square shape, and the size, in the case of a square, varies from a side of over 1 m to 30 cm or less. The experiment time is approximately 5 minutes in general, and significant overactivity, dormancy, and the like can be detected through observation for such a short period of time. In addition, a change in the behavior of an animal over time under a novel environment can be observed by recording for a long period of time. Since it is said that mice get accustomed to the open field environment by 30 minutes to approximately 2 hours, the experiment time is often set between 30 minutes to 3 hours. Also, the open field test is often used for analyzing the phenotyping of gene-modified mice and testing the reactivity to pharmaceutical agents. […] The duration of time spent in the center square (9×9 […]) during an exploratory behavior time of 5 minutes was measured.

[2] = test system: paraventricular nucleus (PVN), supraoptic nucleus (SON) and new region of the hypothalamus; assay: c-Fos immunostaining of hypothalamus sections after oral administration; format: in vivo, C57BL/6J male mice; conditions: oral 1 or 3 g/kg, fasted mice, 90 minutes after administration, vs saline (FIG. 1A)
Procedure: (§1) For brain regions that are activated by the oral administration of D-allulose, the expression levels of a neuronal activation marker (c-Fos) were analyzed by the immunostaining method. c-Fos is one of immediate early genes, is a nuclear protein whose expression level increases along with activation of nerves, and thus can be utilized as a neuronal activation marker. C57BL/6J male mice were used as experimental animals and were acclimatized to an environment through preliminary breeding and handling for 1 week or more in individual cages. Saline or D-allulose (1 or 3 g/kg) was orally intragastrically administered to the mice which were fasted for one night, and 90 minutes after the administration, the mice were perfusion fixed in a 4% paraformaldehyde solution and the brains were resected. The organs were postfixed in a 4% paraformaldehyde solution to prepare frozen section specimens. This frozen section specimen was used to immunostain c-Fos. In the case of double immunostaining for oxytocin/vasopressin and c-Fos, the perfusion fixation and the postfixation were conducted in a mixed solution of 4% paraformaldehyde and 0.2% picric acid. Note that in the experiment for analyzing c-FOS expression level (FIG. 1A to FIG. 1D), C57BL/6J male mice of saline group: n=7, 1 g/kg and 3 g/kg D-allulose group: n=5 each were used. […]

oxytocin (OXT) neurons = assay: double immunostaining for oxytocin and c-Fos after oral administration; format: in vivo, C57BL/6J male mice; conditions: oral 3 g/kg, 90 minutes after administration
Procedure: as §1, with “In” for “Note that in”, “c-Fos positive neurons in the oxytocin (OXT) neurons of paraventricular nucleus (PVN)” for “c-FOS expression level”, “2A and” for “1A to”, “2B),” for “1D),”, “n=4,” for “n=7, 1 g/kg and”, “n=6 were used. In the experiment for analyzing c-Fos positive neurons in the vasopressin (AVP) neurons of paraventricular nucleus (PVN) (FIG. 2C and FIG. 2D), C57BL/6J male mice of saline group: n=4, 3 g/kg D-allulose group: n=6 were used. In the experiment for analyzing c-Fos positive neurons in the oxytocin (OXT) neurons or vasopressin (AVP) neurons of paraventricular nucleus (PVN) (FIG. 3A and FIG. 3B), C57BL/6J male mice of saline group n=4, 3 g/kg D-allulose group: n=6 were used. In the experiment for analyzing c-Fos positive neurons in the oxytocin (OXT) neurons or vasopressin (AVP) neurons of the new region (FIG. 4A and FIG. 4B), C57BL/6J male mice of saline group: n=4, 3 g/kg D-allulose group: n=6” for “n=5 each”

C57BL/6J male mice [3] = assay: Sociality test (social interaction test); format: in vivo; conditions: 10 minutes, vs saline, p<0.05 (FIG. 7B)
Procedure: The sociality test (also called the social interaction test) is an open field test using 2 individual mice that meet for the first time in order to investigate the sociality. The fundamental procedure of the sociality test is the same as that of the open field test using 1 individual member. However, at the time of starting the behavioral observation, mice are placed at the opposing corners of the field and their moving is recorded as moving picture for 10 minutes. This test is intended to evaluate the sociality of mice by measuring frequencies and times of social behaviors such as sniffing, grooming, attack, and tail-rattling between 2 individual members. C57BL/6J male mice (8-week old) were bred for 1 week under a free-feeding condition with a light-dark cycle of 12 hours and were subjected to the open field and sociality tests. Handling and gavage training was conducted for 4 days before the test. In order to evaluate the sociality with a same-sex mouse, each mouse was placed together with a mouse (new mouse) which it met for the first time in a breeding cage (27×27×20 cm^3) and an accumulation time of the exploratory behavior against the new mouse during an exploratory behavior time of 10 minutes was measured.

[4] = test system: vasopressin (AVP) neurons; assay: double immunostaining for vasopressin and c-Fos after oral administration; format: in vivo, C57BL/6J male mice; conditions: oral 3 g/kg, 90 minutes after administration
Procedure: For brain regions that are activated by the oral administration of D-allulose, the expression levels of a neuronal activation marker (c-Fos) were analyzed by the immunostaining method. c-Fos is one of immediate early genes, is a nuclear protein whose expression level increases along with activation of nerves, and thus can be utilized as a neuronal activation marker. C57BL/6J male mice were used as experimental animals and were acclimatized to an environment through preliminary breeding and handling for 1 week or more in individual cages. Saline or D-allulose (1 or 3 g/kg) was orally intragastrically administered to the mice which were fasted for one night, and 90 minutes after the administration, the mice were perfusion fixed in a 4% paraformaldehyde solution and the brains were resected. The organs were postfixed in a 4% paraformaldehyde solution to prepare frozen section specimens. This frozen section specimen was used to immunostain c-Fos. In the case of double immunostaining for oxytocin/vasopressin and c-Fos, the perfusion fixation and the postfixation were conducted in a mixed solution of 4% paraformaldehyde and 0.2% picric acid. In the experiment for analyzing c-Fos positive neurons in the vasopressin (AVP) neurons of paraventricular nucleus (PVN) (FIG. 2C and FIG. 2D), C57BL/6J male mice of saline group: n=4, 3 g/kg D-allulose group: n=6 were used. In the experiment for analyzing c-Fos positive neurons in the oxytocin (OXT) neurons or vasopressin (AVP) neurons of paraventricular nucleus (PVN) (FIG. 3A and FIG. 3B), C57BL/6J male mice of saline group n=4, 3 g/kg D-allulose group: n=6 were used. In the experiment for analyzing c-Fos positive neurons in the oxytocin (OXT) neurons or vasopressin (AVP) neurons of the new region (FIG. 4A and FIG. 4B), C57BL/6J male mice of saline group: n=4, 3 g/kg D-allulose group: n=6 were used. The obtained results are represented by the average values and the standard errors, the statistical testing used the unpaired t-test, * is described by the P value of less than 5% and ** is described by the P value of less than 1%.

oxytocin mRNA = oxytocin mRNA expression in hypothalamus, quantitative real-time PCR; format: in vivo, C57BL/6J male mice; conditions: oral 3 g/kg, 2 hours after administration, vs saline-administered group, relative to 36b4 (FIG. 5)
Procedure: (§2) C57BL/6J male mice (saline group: n=8, D-allulose group: n=9) were used as experimental animals and were acclimatized to an environment through preliminary breeding and handling for 1 week or more in individual cages. Saline or D-allulose (3 g/kg) was orally intragastrically administered to the mice which were fasted for one night, and 2 hours after the administration, the brain's hypothalamus was resected under anesthesia. cDNA was synthesized using the total RNA in hypothalamus as a template. The mRNA expression levels of oxytocin and vasopressin were quantified by the quantitative real-time PCR method. As the housekeeping gene, 36b4 was used. The mRNA expression levels were quantified in accordance with the ΔΔCt method. The target gene expression level in each sample was corrected with the expression level of 36b4 to obtain the relative expression level to 36b4 (ΔCT=the CT value of 36b4−the CT value of the target gene, the relative expression level=2ΔCT).
(§3) Moreover, the mRNA expression level ratio with the average value of the relative expression level of the saline group being set to 1 (the average value of the relative gene expression level of the D-allulose group to 36b4/the average value of the relative expression level of the saline group to 36b4) was obtained to analyze the change in gene expression level in the administration of D-allulose. […]

vasopressin mRNA = vasopressin mRNA expression in hypothalamus, quantitative real-time PCR; format: in vivo, C57BL/6J male mice; conditions: oral 3 g/kg, 2 hours after administration, vs saline-administered group, relative to 36b4 (FIG. 5)
Procedure: as §2, §3

Compound: O=C(CO)[C@H](O)[C@H](O)[C@H](O)CO [D-allulose]
- anxiety behavior: duration of time spent in the center square (C57BL/6J male mice [1]; 1 g/kg oral 30 minutes before test, vs saline (FIG. 6B)): no significant result
- anxiety behavior: duration of time spent in the center square (C57BL/6J male mice [1]; 3 g/kg oral 30 minutes before test, vs saline, p<0.05 (FIG. 6B)): significantly improved
- c-Fos expression level in the paraventricular nucleus (PVN), the supraoptic nucleus (SON), and a new region of the hypothalamus [2]: significantly facilitated
- c-Fos expression level in the oxytocin (OXT) neuron of the paraventricular nucleus (PVN) (oxytocin (OXT) neurons; vs saline (FIGS. 2A, 2B)): significantly increased
- activation (c-Fos) of the oxytocin neurons of the supraoptic nucleus (SON) (oxytocin (OXT) neurons; vs saline (FIGS. 3A, 3B)): activated
- activation (c-Fos) of the oxytocin neurons in the new region of the hypothalamus (oxytocin (OXT) neurons; vs saline (FIGS. 4A, 4B)): activated
- social behavior: accumulation time of exploratory behavior against the new mouse (C57BL/6J male mice [3]; 1 g/kg oral): significantly facilitated
- social behavior: accumulation time of exploratory behavior against the new mouse (C57BL/6J male mice [3]; 3 g/kg oral): significantly facilitated
- activation (c-Fos) of the vasopressin (AVP) neuron of the paraventricular nucleus (PVN) ([4]; vs saline (FIGS. 2C, 2D)): activated
- activation (c-Fos) of the vasopressin neurons of the supraoptic nucleus (SON) ([4]; vs saline (FIGS. 3A, 3B)): activated
- activation (c-Fos) of the vasopressin neurons in the new region of the hypothalamus ([4]; vs saline (FIGS. 4A, 4B)): activated
- expression of the mRNA of oxytocin in the hypothalamus (oxytocin mRNA): significantly enhanced
- expression of the mRNA of vasopressin in the hypothalamus (vasopressin mRNA): significantly enhanced
